Assays:
Test in all cases: growth (OD600) normalised to reference wells; higher = more growth / less inhibition
GPI2_HIP = test system: GPI2_HIP
Protocol: (§1)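 S. cerevisiae strains (wild type, SPT14 point-mutant knock-ins, HIP heterozygous and HOP homozygous deletion strains) were grown in rich medium in 96-well plates with 12-point serial dilutions of jawsamycin or clotrimazole (DMSO normalised to 2%). Growth was read as OD600 and normalised within each dilution series (NormOD, % growth). Wells set exactly to 100 are normalisation references and are left out.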

SPT14_HIP = test system: SPT14_HIP
Protocol: as §1

GPI15_HIP = test system: GPI15_HIP
Protocol: as §1

SPT14(T114A) = test system: SPT14(T114A)
Protocol: as §1

HO_HOP = test system: HO_HOP
Protocol: as §1

RLM1_HOP = test system: RLM1_HOP
Protocol: as §1

HAC1_HOP = test system: HAC1_HOP
Protocol: as §1

SPT14(H106Y) = test system: SPT14(H106Y)
Protocol: as §1

MUD2_HOP = test system: MUD2_HOP
Protocol: as §1

IRE1_HOP = test system: IRE1_HOP
Protocol: as §1

GPI1_HIP = test system: GPI1_HIP
Protocol: as §1

MID2_HOP = test system: MID2_HOP
Protocol: as §1

SPT14(WT) = test system: SPT14(WT)
Protocol: as §1

SPT14(V76F) = test system: SPT14(V76F)
Protocol: as §1

JIP3_HOP = test system: JIP3_HOP
Protocol: as §1

HO_HIP = test system: HO_HIP
Protocol: as §1

C[C@@H]1C[C@H]1/C=C/[C@@H]1C[C@H]1[C@@H]1C[C@H]1[C@@H]1C[C@H]1[C@@H]1C[C@H]1/C=C/C=C/C(=O)NC[C@H]1O[C@@H](N2CCC(=O)NC2=O)[C@H](O)[C@@H]1O [Jawsamycin]
Settings	growth [%]
GPI1_HIP, 0.125900179 µM	95.1
GPI1_HIP, 0.26439 µM	65.4
GPI1_HIP, 0.55522 µM	3.38
GPI1_HIP, 1.16596 µM	0.172
GPI1_HIP, 2.44852 µM	-0.0309
GPI1_HIP, 5.14189 µM	0.123
GPI1_HIP, 10.79796998 µM	-0.0696
GPI1_HIP, 22.6757 µM	-0.0919
GPI1_HIP, 47.619 µM	0.953
GPI1_HIP, 100 µM	4.06
GPI2_HIP, 0.125900179 µM	102
GPI2_HIP, 0.26439 µM	78.2
GPI2_HIP, 0.55522 µM	12.1
GPI2_HIP, 1.16596 µM	0.957
GPI2_HIP, 2.44852 µM	-0.153
GPI2_HIP, 5.14189 µM	-0.208
GPI2_HIP, 10.79796998 µM	-0.242
GPI2_HIP, 22.6757 µM	0.183
GPI2_HIP, 47.619 µM	1.43
GPI2_HIP, 100 µM	3.73
GPI15_HIP, 0.125900179 µM	96
GPI15_HIP, 0.26439 µM	83.9
GPI15_HIP, 0.55522 µM	14.5
GPI15_HIP, 1.16596 µM	0.707
GPI15_HIP, 2.44852 µM	-0.181
GPI15_HIP, 5.14189 µM	-0.594
GPI15_HIP, 10.79796998 µM	-0.329
GPI15_HIP, 22.6757 µM	-0.355
GPI15_HIP, 47.619 µM	2.02
GPI15_HIP, 100 µM	3.35
HAC1_HOP, 0.12590018 µM	72.1
HAC1_HOP, 0.26439 µM	23.7
HAC1_HOP, 0.55522 µM	3.92
HAC1_HOP, 1.16596156 µM	2.26
HAC1_HOP, 2.44852 µM	0.418
HAC1_HOP, 5.14189 µM	0.344
HAC1_HOP, 10.798 µM	1.36
HO_HIP, 0.125900179 µM	100.4
HO_HIP, 0.26439 µM	96.5
HO_HIP, 0.55522 µM	29.9
HO_HIP, 1.16596 µM	5.52
HO_HIP, 2.44852 µM	1.29
HO_HIP, 5.14189 µM	0.138
HO_HIP, 10.79796998 µM	-0.0442
HO_HIP, 22.6757 µM	0.182
HO_HIP, 47.619 µM	5.56
HO_HIP, 100 µM	11.6
HO_HOP, 0.12590018 µM	97
HO_HOP, 0.26439 µM	84
HO_HOP, 0.55522 µM	56
HO_HOP, 1.16596156 µM	15.1
HO_HOP, 2.44852 µM	4.54
HO_HOP, 5.14189 µM	1.38
HO_HOP, 10.798 µM	8.54
IRE1_HOP, 0.12590018 µM	70.1
IRE1_HOP, 0.26439 µM	14.2
IRE1_HOP, 0.55522 µM	2.66
IRE1_HOP, 1.16596156 µM	-0.118
IRE1_HOP, 2.44852 µM	-0.241
IRE1_HOP, 5.14189 µM	-0.264
IRE1_HOP, 10.798 µM	0.8
JIP3_HOP, 0.12590018 µM	64.5
JIP3_HOP, 0.26439 µM	-0.444
JIP3_HOP, 0.55522 µM	-0.584
JIP3_HOP, 1.16596156 µM	-0.756
JIP3_HOP, 2.44852 µM	-0.689
JIP3_HOP, 5.14189 µM	-0.655
JIP3_HOP, 10.798 µM	0.0162
MID2_HOP, 0.12590018 µM	89.4
MID2_HOP, 0.26439 µM	0.809
MID2_HOP, 0.55522 µM	-0.646
MID2_HOP, 1.16596156 µM	-0.903
MID2_HOP, 2.44852 µM	-0.918
MID2_HOP, 5.14189 µM	-0.848
MID2_HOP, 10.798 µM	-0.546
MUD2_HOP, 0.12590018 µM	33.2
MUD2_HOP, 0.26439 µM	0.873
MUD2_HOP, 0.55522 µM	-1.12
MUD2_HOP, 1.16596156 µM	-1.19
MUD2_HOP, 2.44852 µM	-0.498
MUD2_HOP, 5.14189 µM	-0.906
MUD2_HOP, 10.798 µM	-0.454
RLM1_HOP, 0.12590018 µM	88
RLM1_HOP, 0.26439 µM	2.22
RLM1_HOP, 0.55522 µM	-0.308
RLM1_HOP, 1.16596156 µM	-0.482
RLM1_HOP, 2.44852 µM	-0.568
RLM1_HOP, 5.14189 µM	-0.545
RLM1_HOP, 10.798 µM	-0.0157
SPT14(H106Y), 0.0599525 µM	99.9
SPT14(H106Y), 0.125900179 µM	99.6
SPT14(H106Y), 0.26439 µM	96
SPT14(H106Y), 0.55522 µM	91.6
SPT14(H106Y), 1.16596 µM	65.8
SPT14(H106Y), 2.44852 µM	1.98
SPT14(H106Y), 5.14189 µM	-4.83
SPT14(H106Y), 10.79796998 µM	-5.01
SPT14(H106Y), 22.6757 µM	-5
SPT14(H106Y), 47.619 µM	-2.96
SPT14(H106Y), 100 µM	0.649
SPT14(T114A), 0.0599525 µM	96.9
SPT14(T114A), 0.125900179 µM	97.4
SPT14(T114A), 0.26439 µM	92.3
SPT14(T114A), 0.55522 µM	86.4
SPT14(T114A), 1.16596 µM	61
SPT14(T114A), 2.44852 µM	-0.886
SPT14(T114A), 5.14189 µM	-4.03
SPT14(T114A), 10.79796998 µM	-3.95
SPT14(T114A), 22.6757 µM	-3.63
SPT14(T114A), 47.619 µM	-2.26
SPT14(T114A), 100 µM	0.0855
SPT14(V76F), 0.1259 µM	101.9
SPT14(V76F), 0.26439 µM	103
SPT14(V76F), 0.55522 µM	104
SPT14(V76F), 1.16596 µM	96.4
SPT14(V76F), 2.44852 µM	100
SPT14(V76F), 5.14189 µM	99
SPT14(V76F), 10.798 µM	102
SPT14(V76F), 22.6757 µM	102
SPT14(V76F), 100 µM	74.6
SPT14(WT), 0.0599525 µM	80.5
SPT14(WT), 0.125900179 µM	17.9
SPT14(WT), 0.26439 µM	-3.32
SPT14(WT), 0.55522 µM	-3.82
SPT14(WT), 1.16596 µM	-3.97
SPT14(WT), 2.44852 µM	-3.91
SPT14(WT), 5.14189 µM	-3.92
SPT14(WT), 10.79796998 µM	-3.59
SPT14(WT), 22.6757 µM	-3.29
SPT14(WT), 47.619 µM	-1.96
SPT14(WT), 100 µM	-0.804
SPT14_HIP, 0.125900179 µM	108
SPT14_HIP, 0.26439 µM	89.878
SPT14_HIP, 0.55522 µM	21.9
SPT14_HIP, 1.16596 µM	2.72
SPT14_HIP, 2.44852 µM	0.0973
SPT14_HIP, 5.14189 µM	-0.496
SPT14_HIP, 10.79796998 µM	-0.548
SPT14_HIP, 22.6757 µM	0.0487
SPT14_HIP, 47.619 µM	2.81
SPT14_HIP, 100 µM	5.21

Clc1ccccc1C(c1ccccc1)(c1ccccc1)n1ccnc1 [Clotrimazole]
growth [%]
Settings	GPI1_HIP	GPI2_HIP	GPI15_HIP	HO_HIP	SPT14(H106Y)	SPT14(T114A)	SPT14(V76F)	SPT14(WT)	SPT14_HIP
0.0599525 µM	–	–	–	–	87.7	89.1	–	86.2	–
0.1259 µM	–	–	–	–	–	–	101	–	–
0.125900179 µM	99.71	101.2	100.7	101	60.9	72	–	69.1	101.3
0.26439 µM	99.45	99.573	99.95	98.3	6.75	33.3	99.4	8.87	99.746
0.55522 µM	92.9	94.15	94.01	94.61	7.18	13.3	104	9.82	91.5
1.16596 µM	10.1	14.5	7.93	8.24	4.48	12.5	97.7	6.88	11.7
2.44852 µM	4.4	2.59	3.69	1.95	5.03	15.9	95.9	6.32	3.86
5.14189 µM	1.82	1.15	1.3	0.55	3.41	12	98.2	4.16	1.8
10.79796998 µM	0.134	0.0555	-0.36	-0.231	1.98	3.16	–	3	0.0343
10.798 µM	–	–	–	–	–	–	4.41	–	–
22.6757 µM	-0.448	-0.447	-0.813	-0.622	2.09	3.52	0.641	3.43	-0.803
47.619 µM	-0.6398	-0.447	-0.839	-0.564	-0.417	0.134	-1.36	-0.421	-0.679
100 µM	1.31	1.041	0.998	1.08	-0.409	0.19	-0.859	-0.41	1.11

Reference: the supplement of paper PMC7341893
